Reference: publication PMC8148004, “Distinction between 2′- and 3′-Phosphate Isomers of a Fluorescent NADPH Analogue Led to Strong Inhibition of Cancer Cells Migration” (Antioxidants, 2021)

Tests used:
[1] = biological target: T1, NOX2 C-terminal (gp91phox) (Homo sapiens, UniProt P04839); test: fluorescence enhancement titration of the ligand with recombinant protein; also decreased NADPH consumption; assay type: binding
T1 construct: gene CYBB; C-terminal (cytosolic part), residues 300–580, His-tagged, E. coli
T1 sequence (P04839 300-570): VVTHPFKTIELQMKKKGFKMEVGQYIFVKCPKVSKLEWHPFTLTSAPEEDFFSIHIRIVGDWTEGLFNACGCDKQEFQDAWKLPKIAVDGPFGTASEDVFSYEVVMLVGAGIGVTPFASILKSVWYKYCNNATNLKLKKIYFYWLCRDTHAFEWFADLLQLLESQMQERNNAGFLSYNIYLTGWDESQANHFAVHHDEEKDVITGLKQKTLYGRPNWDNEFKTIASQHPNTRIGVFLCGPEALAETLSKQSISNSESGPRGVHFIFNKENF

eNOS = biological target: T2, eNOS (Bos taurus, UniProt P29473); test: oxyhemoglobin assay for NO formation; assay type: biochemical
T2 construct: gene NOS3; full length recombinant bovine eNOS, E. coli BL21 (DE3); with calmodulin
T2 sequence (P29473 2-1205): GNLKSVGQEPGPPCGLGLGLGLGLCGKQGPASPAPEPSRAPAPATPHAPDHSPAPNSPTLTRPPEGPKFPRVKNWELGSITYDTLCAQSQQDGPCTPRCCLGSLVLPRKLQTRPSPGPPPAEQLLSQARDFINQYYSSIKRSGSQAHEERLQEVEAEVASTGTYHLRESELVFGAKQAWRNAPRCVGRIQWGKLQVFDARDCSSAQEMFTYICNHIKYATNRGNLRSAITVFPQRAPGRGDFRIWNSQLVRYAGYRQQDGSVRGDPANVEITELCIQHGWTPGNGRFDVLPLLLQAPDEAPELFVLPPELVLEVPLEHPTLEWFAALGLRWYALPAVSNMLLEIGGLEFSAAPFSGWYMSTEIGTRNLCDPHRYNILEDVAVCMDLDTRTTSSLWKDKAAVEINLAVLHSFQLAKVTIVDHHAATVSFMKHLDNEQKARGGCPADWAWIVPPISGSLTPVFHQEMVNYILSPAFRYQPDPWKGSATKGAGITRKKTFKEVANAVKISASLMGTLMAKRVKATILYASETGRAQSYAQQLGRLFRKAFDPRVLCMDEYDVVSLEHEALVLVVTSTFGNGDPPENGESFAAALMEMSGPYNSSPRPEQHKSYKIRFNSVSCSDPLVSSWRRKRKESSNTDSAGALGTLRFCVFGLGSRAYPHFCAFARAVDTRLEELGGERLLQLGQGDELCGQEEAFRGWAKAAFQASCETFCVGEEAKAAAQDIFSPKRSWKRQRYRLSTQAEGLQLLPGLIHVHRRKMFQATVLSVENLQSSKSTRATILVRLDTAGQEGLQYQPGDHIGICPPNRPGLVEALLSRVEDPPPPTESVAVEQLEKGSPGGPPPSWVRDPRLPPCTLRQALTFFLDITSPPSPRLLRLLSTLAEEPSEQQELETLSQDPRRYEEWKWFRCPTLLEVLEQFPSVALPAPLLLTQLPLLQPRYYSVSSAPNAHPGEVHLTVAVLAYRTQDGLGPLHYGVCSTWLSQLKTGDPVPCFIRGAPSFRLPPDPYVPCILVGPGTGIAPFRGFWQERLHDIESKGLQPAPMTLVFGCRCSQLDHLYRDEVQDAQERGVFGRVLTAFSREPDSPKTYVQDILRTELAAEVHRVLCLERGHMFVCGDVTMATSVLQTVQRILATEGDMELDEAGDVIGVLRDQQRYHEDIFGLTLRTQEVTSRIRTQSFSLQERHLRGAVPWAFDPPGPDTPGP

[2] = biological target: T1, NOX2 C-terminal (gp91phox); test: fluorescence enhancement titration of the ligand with recombinant protein; assay type: binding

Row | Kd [1] [nM] | IC50 (eNOS) [µM] | Kd [2] [nM] | SMILES
1 | 670 ± 110 | ~30 |  | CCN(CCNC(=O)[C@H]1O[C@@H](n2cnc3c(N)ncnc32)[C@H](OP(=O)(O)O)[C@@H]1O)c1ccc(/C=C/c2ccc([N+](=O)[O-])cc2)cc1 [NS1-2]
2 |  |  | 1140 ± 90 | CCN(CCNC(=O)[C@H]1O[C@@H](n2cnc3c(N)ncnc32)[C@H](O)[C@@H]1OP(=O)(O)O)c1ccc(/C=C/c2ccc([N+](=O)[O-])cc2)cc1 [NS1-3]
